# Experimental data taken from US20070203091A1, “Methods and therapeutic compositions for improving liver, blood flow and skeletal muscle functions in advanced diseases and aging” (priority 2006, published 2007).
# Tests used:
# [1] = in vivo; cited from earlier work
# [2] = Cachexia markers Part II: blood TNF-alpha, Interleukin-6, Phase I study; type: in vivo, human
# Source text: TNF-alpha is an acknowledged independent negative prognostic factor of morbidity and mortality in the elderly (30).
# [3] = Laboratory parameters, chemistry: LDH, bilirubin, SGOT, SGPT, Phase I study; type: in vivo, human
# Source text: Serum LDH levels are an established strong independent negative prognostic factor, inversely related to survival in a great variety of adverse clinical conditions. In advanced refractory cancers, high LDH and low Karnofsky's performance status are among the strongest established independent negative prognostic factors of survival and quality of life (29).
# [4] = Quality of life (EORTC QLQ-C30), appetite, energy and body weight, Phase I study; type: in vivo, human
# Source text: Nine qualified patients have been enrolled in the study as of Sep. 1, 2001; seven of which received the first 3 cycles of the study drug and are therefore evaluable for the primary endpoint. Two of the seven evaluable patients had advanced prostate cancer with bone metastases and one each had advanced mesothelioma, metastatic breast cancer, metastatic melanoma, metastatic colon cancer and renal cell carcinoma.
# Three of these parameters are EORTC QLQ-C30 patient-oriented questionnaire, skeletal (voluntary) muscle strength and percent body fat. […] The screening value is used as the patients' baseline. In some patients a deterioration in overall quality of life between screening and week 1, prior to the administration of study drug has been observed. […] A more accurate baseline for evaluation of the efficacy of ATP treatment on cancer cachexia and quality of life parameters is therefore recommended.
# [5] = Stability of ATP drug product and infusion solution; type: physicochemical
# Procedure: An example of a clinical procedure in the treatment of individuals in need thereof is as follows. After determination of baseline, pre-treatment vital signs, hemodynamic variables and blood chemistry, an ATP dose escalation procedure is initiated. ATP is provided as a sterile solution in single use vials. […] Storage of the clinical solution is at controlled refrigerated temperature (2° C.-6° C.). […] The concentration of the final sterile solution for the infusion is 8 mg/ml.
# See attached AAI International Analytical Testing Report Aug. 2, 2001.
# [6] = Week 1 (Infusion 1), baseline, N=15
# [7] = patients 502-505, week 1 (pre-dose) to week 13 (follow-up)
# [8] = Patient 504, while on ATP treatment
# [9] = patients 502-505, week 13 follow-up
compound,measurement,setting,value
"Nc1ncnc2c1ncn2[C@@H]1O[C@H](COP(=O)(O)OP(=O)(O)OP(=O)(O)O)[C@@H](O)[C@H]1O [ATP, adenosine 5′-triphosphate]",half-life of expanded ATP pools in red blood cells,[1],about 6 hours
same,Interleukin-6 levels,[2]; upon ATP treatment,not stabilized
same,levels of blood tumor necrosis factor-alpha (TNF-alpha),[2]; week 13,stabilize
same,"LDH, Change from Baseline, Median",[3]; [6],0.0 U/L
same,"LDH, Observed Values, Mean",[3]; [6],349.0 U/L
same,"LDH, Observed Values, Median",[3]; [6],265.0 U/L
same,"Phosphorus, Change from Baseline, Mean",[3]; [6],0.0 mg/dL
same,"Phosphorus, Change from Baseline, Median",[3]; [6],0.0 mg/dL
same,"Phosphorus, Observed Values, Mean",[3]; [6],3.1 mg/dL
same,"Phosphorus, Observed Values, Median",[3]; [6],3.2 mg/dL
same,"Total Bilirubin, Change from Baseline, Mean",[3]; [6],0.0 mg/dL
same,"Total Bilirubin, Change from Baseline, Median",[3]; [6],0.0 mg/dL
same,"Total Bilirubin, Observed Values, Mean",[3]; [6],0.7 mg/dL
same,"Total Bilirubin, Observed Values, Median",[3]; [6],0.4 mg/dL
same,"LDH, Change from Baseline, Median","[3]; Week 2 (Infusion 2), N=14",24.0 U/L
same,"LDH, Observed Values, Mean","[3]; Week 2 (Infusion 2), N=14",386.6 U/L
same,"LDH, Observed Values, Median","[3]; Week 2 (Infusion 2), N=14",325.5 U/L
same,"Phosphorus, Change from Baseline, Mean","[3]; Week 2 (Infusion 2), N=14",0.1 mg/dL
same,"Phosphorus, Change from Baseline, Median","[3]; Week 2 (Infusion 2), N=14",0.1 mg/dL
same,"Phosphorus, Observed Values, Mean","[3]; Week 2 (Infusion 2), N=14",3.2 mg/dL
same,"Phosphorus, Observed Values, Median","[3]; Week 2 (Infusion 2), N=14",3.2 mg/dL
same,"Total Bilirubin, Change from Baseline, Mean","[3]; Week 2 (Infusion 2), N=14",-0.1 mg/dL
same,"Total Bilirubin, Change from Baseline, Median","[3]; Week 2 (Infusion 2), N=14",0.0 mg/dL
same,"Total Bilirubin, Observed Values, Mean","[3]; Week 2 (Infusion 2), N=14",0.6 mg/dL
same,"Total Bilirubin, Observed Values, Median","[3]; Week 2 (Infusion 2), N=14",0.4 mg/dL
same,"LDH, Change from Baseline, Median","[3]; Week 4 (Infusion 4), N=11",3.0 U/L
same,"LDH, Observed Values, Mean","[3]; Week 4 (Infusion 4), N=11",277.4 U/L
same,"LDH, Observed Values, Median","[3]; Week 4 (Infusion 4), N=11",211.0 U/L
same,"Phosphorus, Change from Baseline, Mean","[3]; Week 4 (Infusion 4), N=11",-0.1 mg/dL
same,"Phosphorus, Change from Baseline, Median","[3]; Week 4 (Infusion 4), N=11",0.0 mg/dL
same,"Phosphorus, Observed Values, Mean","[3]; Week 4 (Infusion 4), N=11",3.1 mg/dL
same,"Phosphorus, Observed Values, Median","[3]; Week 4 (Infusion 4), N=11",3.0 mg/dL
same,"Total Bilirubin, Change from Baseline, Mean","[3]; Week 4 (Infusion 4), N=11",0.2 mg/dL
same,"Total Bilirubin, Change from Baseline, Median","[3]; Week 4 (Infusion 4), N=11",-0.1 mg/dL
same,"Total Bilirubin, Observed Values, Mean","[3]; Week 4 (Infusion 4), N=11",0.8 mg/dL
same,"Total Bilirubin, Observed Values, Median","[3]; Week 4 (Infusion 4), N=11",0.2 mg/dL
same,"LDH, Change from Baseline, Median","[3]; Week 6 (Infusion 6), N=9",−20.0 U/L
same,"LDH, Observed Values, Mean","[3]; Week 6 (Infusion 6), N=9",265.6 U/L
same,"LDH, Observed Values, Median","[3]; Week 6 (Infusion 6), N=9",173.0 U/L
same,"Phosphorus, Change from Baseline, Mean","[3]; Week 6 (Infusion 6), N=9",-0.1 mg/dL
same,"Phosphorus, Change from Baseline, Median","[3]; Week 6 (Infusion 6), N=9",0.2 mg/dL
same,"Phosphorus, Observed Values, Mean","[3]; Week 6 (Infusion 6), N=9",3.1 mg/dL
same,"Phosphorus, Observed Values, Median","[3]; Week 6 (Infusion 6), N=9",3.3 mg/dL
same,"Total Bilirubin, Change from Baseline, Mean","[3]; Week 6 (Infusion 6), N=9",1.2 mg/dL
same,"Total Bilirubin, Change from Baseline, Median","[3]; Week 6 (Infusion 6), N=9",-0.1 mg/dL
same,"Total Bilirubin, Observed Values, Mean","[3]; Week 6 (Infusion 6), N=9",1.9 mg/dL
same,"Total Bilirubin, Observed Values, Median","[3]; Week 6 (Infusion 6), N=9",0.3 mg/dL
same,"LDH, Change from Baseline, Median","[3]; Week 8 (Infusion 8), N=6",−25.0 U/L
same,"LDH, Observed Values, Mean","[3]; Week 8 (Infusion 8), N=6",245.0 U/L
same,"LDH, Observed Values, Median","[3]; Week 8 (Infusion 8), N=6",161.0 U/L
same,"Phosphorus, Change from Baseline, Mean","[3]; Week 8 (Infusion 8), N=7",0.3 mg/dL
same,"Phosphorus, Change from Baseline, Median","[3]; Week 8 (Infusion 8), N=7",0.0 mg/dL
same,"Phosphorus, Observed Values, Mean","[3]; Week 8 (Infusion 8), N=7",3.4 mg/dL
same,"Phosphorus, Observed Values, Median","[3]; Week 8 (Infusion 8), N=7",3.4 mg/dL
same,"Total Bilirubin, Change from Baseline, Mean","[3]; Week 8 (Infusion 8), N=7",-0.0 mg/dL
same,"Total Bilirubin, Change from Baseline, Median","[3]; Week 8 (Infusion 8), N=7",-0.1 mg/dL
same,"Total Bilirubin, Observed Values, Mean","[3]; Week 8 (Infusion 8), N=7",0.4 mg/dL
same,"Total Bilirubin, Observed Values, Median","[3]; Week 8 (Infusion 8), N=7",0.4 mg/dL
same,"LDH, Change from Baseline, Median","[3]; Week 10 (Follow-up), N=5",−15.0 U/L
same,"LDH, Observed Values, Mean","[3]; Week 10 (Follow-up), N=5",214.6 U/L
same,"LDH, Observed Values, Median","[3]; Week 10 (Follow-up), N=5",155.0 U/L
same,"Phosphorus, Change from Baseline, Mean","[3]; Week 10 (Follow-up), N=6",0.0 mg/dL
same,"Phosphorus, Change from Baseline, Median","[3]; Week 10 (Follow-up), N=6",0.3 mg/dL
same,"Phosphorus, Observed Values, Mean","[3]; Week 10 (Follow-up), N=6",3.2 mg/dL
same,"Phosphorus, Observed Values, Median","[3]; Week 10 (Follow-up), N=6",3.3 mg/dL
same,"Total Bilirubin, Change from Baseline, Mean","[3]; Week 10 (Follow-up), N=6",0.1 mg/dL
same,"Total Bilirubin, Change from Baseline, Median","[3]; Week 10 (Follow-up), N=6",-0.1 mg/dL
same,"Total Bilirubin, Observed Values, Mean","[3]; Week 10 (Follow-up), N=6",0.5 mg/dL
same,"Total Bilirubin, Observed Values, Median","[3]; Week 10 (Follow-up), N=6",0.4 mg/dL
same,"LDH, Change from Baseline, Median","[3]; Week 13 (Follow-up), N=5",−27.0 U/L
same,"LDH, Observed Values, Mean","[3]; Week 13 (Follow-up), N=5",168.2 U/L
same,"LDH, Observed Values, Median","[3]; Week 13 (Follow-up), N=5",158.0 U/L
same,"Phosphorus, Change from Baseline, Mean","[3]; Week 13 (Follow-up), N=5",-0.0 mg/dL
same,"Phosphorus, Change from Baseline, Median","[3]; Week 13 (Follow-up), N=5",0.2 mg/dL
same,"Phosphorus, Observed Values, Mean","[3]; Week 13 (Follow-up), N=5",3.2 mg/dL
same,"Phosphorus, Observed Values, Median","[3]; Week 13 (Follow-up), N=5",3.2 mg/dL
same,"Total Bilirubin, Change from Baseline, Mean","[3]; Week 13 (Follow-up), N=6",0.1 mg/dL
same,"Total Bilirubin, Change from Baseline, Median","[3]; Week 13 (Follow-up), N=6",0.1 mg/dL
same,"Total Bilirubin, Observed Values, Mean","[3]; Week 13 (Follow-up), N=6",0.4 mg/dL
same,"Total Bilirubin, Observed Values, Median","[3]; Week 13 (Follow-up), N=6",0.4 mg/dL
same,SGOT (serum glutamate oxaloacetate transaminase),[3]; [7],Consistent decreases
same,SGPT (serum glutamate pyruvate transaminase),[3]; [7],Consistent decreases
same,serum LDH (lactate dehydrogenase),[3]; [7],Consistent decreases
same,serum levels of bilirubin,[3]; week 13 of treatment,remained stable
same,serum levels of lactate dehydrogenase (LDH),[3]; week 13 of treatment,dropped
same,patient's comment on energy / appetite,"[4]; Patient 502, during the treatment period",improved energy levels
same,patient's comment on energy / appetite,"[4]; Patient 503, during ATP therapy",improved energy and appetite
same,patient's comment on energy / appetite,[4]; [8],increased energy and appetite
same,weight,[4]; [8],increasing
same,patient's comment on energy / appetite,"[4]; Patient 505, while on study",improved energy and appetite
same,patient's comment on energy / appetite,[4]; Patient 506,more energy and improved appetite
same,Other Endpoints (patient's comment on energy),"[4]; Patient 507, while on ATP Rx",Felt more energy
same,patient's comment on energy / activity,[4]; Patient 509,subjective improvement in energy and activity
same,subjective comments of several patients on appetite and energy,"[4]; during the study, first nine patients",improved appetite and energy
same,Global Health Status of the QOL EORTC QLQ-C30,"[4]; patients 502-505, screening (week <1) to follow-up (week 10)",Increases
same,appetite loss,"[4]; patients 502-505, screening to week 10 (follow-up)",Decreases
same,body weight,[4]; [7],Stabilization
same,Global Health Status of the QOL EORTC QLQ-C30,[4]; [9],decline
same,appetite loss,[4]; [9],return to screening baseline
same,3 month stability data,[5]; 3 months under routine storage conditions,remains stable at 3 months under
same,15 months stability testing,[5]; refrigerated ATP (5° C.),99.7 % of label
same,stability of the final ATP solutions,"[5]; room temperature, infusion solution 8 mg/ml",at least 96 hours
